Assay results taken from ChEMBL document CHEMBL1914379, “Challenges of drug discovery in novel target space. The discovery and evaluation of PF-3893787: a novel histamine H4 receptor antagonist” (Bioorg Med Chem Lett, 2011).
Calls of active or inactive are those of the source. The calls are words filed in the database; no cut-off is given here.

Assays:
[1] = target: Histamine H4 receptor (Rattus norvegicus) (UniProt Q91ZY1); test: Partial agonist activity at rat H4R expressed in HEK293T cells assessed as reversal of forskolin-induced cAMP production by CRE-beta-lactamase reporter gene assay; assay type: functional, cell-based; settings: HEK-293T
Histamine H4 receptor (Rattus norvegicus), sequence (Q91ZY1 whole entry): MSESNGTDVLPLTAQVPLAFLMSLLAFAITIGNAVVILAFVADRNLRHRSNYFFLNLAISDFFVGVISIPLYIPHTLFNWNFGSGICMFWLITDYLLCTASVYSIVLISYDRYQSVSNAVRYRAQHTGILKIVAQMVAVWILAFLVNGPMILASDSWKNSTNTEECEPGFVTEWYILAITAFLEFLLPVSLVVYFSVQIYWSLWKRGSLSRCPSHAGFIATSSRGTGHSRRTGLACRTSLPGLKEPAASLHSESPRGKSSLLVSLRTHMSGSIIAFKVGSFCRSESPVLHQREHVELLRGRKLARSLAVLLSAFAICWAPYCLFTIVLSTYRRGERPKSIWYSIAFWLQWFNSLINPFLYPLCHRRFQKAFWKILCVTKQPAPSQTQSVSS

[2] = target: T1, Histamine H4 receptor (Homo sapiens, UniProt Q9H3N8); test: Antagonist activity at H4R in human eosinophils assessed as inhibition of histamine-induced CD11b upregulation; assay type: functional
T1 sequence (Q9H3N8 whole entry): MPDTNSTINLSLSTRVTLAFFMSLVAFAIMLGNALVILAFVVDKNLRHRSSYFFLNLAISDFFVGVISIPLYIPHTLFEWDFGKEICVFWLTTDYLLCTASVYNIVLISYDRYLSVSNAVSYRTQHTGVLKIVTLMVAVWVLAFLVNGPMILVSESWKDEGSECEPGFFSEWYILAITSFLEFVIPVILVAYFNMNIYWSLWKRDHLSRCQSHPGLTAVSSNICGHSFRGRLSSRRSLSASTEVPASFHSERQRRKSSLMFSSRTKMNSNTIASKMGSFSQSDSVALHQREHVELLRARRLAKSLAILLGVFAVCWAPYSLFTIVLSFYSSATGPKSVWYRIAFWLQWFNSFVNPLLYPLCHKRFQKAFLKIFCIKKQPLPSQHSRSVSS

[3] = system: Plasma; test: Plasma protein binding in dog at 1 mg/kg, iv and 10 mg/kg, po; assay type: ADME, organism-based, Canis lupus familiaris; settings: in vivo
[4] = target: Histamine H4 receptor (Rattus norvegicus, UniProt Q91ZY1); test: Displacement of [3H]-histamine from rat H4R expressed in HEK293T cells; assay type: cell-based, HEK-293T
Histamine H4 receptor (Rattus norvegicus, UniProt Q91ZY1), sequence (Q91ZY1 whole entry): as the sequence (Q91ZY1 whole entry) above

[5] = Ratio of drug level in blood to plasma in dog at 1 mg/kg, iv and 10 mg/kg, po; assay type: ADME, organism-based, Canis lupus familiaris
[6] = Plasma protein binding in rat at 1 mg/kg, iv and 5 mg/kg, po; assay type: ADME, organism-based; settings: read-out: PPB (converted)
[7] = Half life in dog at 1 mg/kg, iv and 10 mg/kg, po; assay type: ADME, organism-based, Canis lupus familiaris; settings: in vivo
[8] = target: T2, Histamine H4 receptor (Mus musculus, UniProt Q91ZY2); test: Displacement of [3H]-histamine from mouse H4R expressed in HEK293T cells; assay type: cell-based, HEK-293T
T2 sequence (Q91ZY2 whole entry): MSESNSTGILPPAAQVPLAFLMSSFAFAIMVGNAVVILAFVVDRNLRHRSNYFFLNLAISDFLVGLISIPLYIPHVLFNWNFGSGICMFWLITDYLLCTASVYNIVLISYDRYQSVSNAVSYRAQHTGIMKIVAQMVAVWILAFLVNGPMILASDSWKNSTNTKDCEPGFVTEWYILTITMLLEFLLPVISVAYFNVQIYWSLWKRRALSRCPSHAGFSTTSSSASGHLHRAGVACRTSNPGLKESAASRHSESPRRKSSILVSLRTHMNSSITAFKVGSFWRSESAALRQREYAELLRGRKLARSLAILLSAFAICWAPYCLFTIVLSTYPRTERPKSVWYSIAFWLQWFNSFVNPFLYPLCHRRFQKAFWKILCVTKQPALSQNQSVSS

[9] = Volume of distribution in dog blood at 1 mg/kg, iv and 10 mg/kg, po; assay type: ADME, organism-based, Canis lupus familiaris
[10] = Half life in rat at 1 mg/kg, iv and 5 mg/kg, po; assay type: ADME, organism-based; settings: in vivo
[11] = Volume of distribution in rat blood at 1 mg/kg, iv and 5 mg/kg, po; assay type: ADME, organism-based
[12] = Displacement of [3H]-histamine from macaque H4R expressed in HEK293T cells; assay type: cell-based, Macaca mulatta; settings: hek-293t
[13] = target: T1, Histamine H4 receptor; test: Antagonist activity at H4R in human eosinophils assessed as inhibition of histamine-induced actin polymerisation; assay type: functional
[14] = Ratio of drug level in blood to plasma in human; assay type: ADME; settings: blood and plasma
[15] = system: HEK-293T; test: Inverse agonist activity at macaque H4R expressed in HEK293T cells assessed as reversal of forskolin-induced cAMP production by CRE-beta-lactamase reporter gene assay; assay type: functional, cell-based; settings: Macaca mulatta
[16] = Oral bioavailability in dog at 10 mg/kg; assay type: ADME, organism-based, Canis lupus familiaris; settings: in vivo
[17] = target: T1, Histamine H4 receptor; test: Displacement of [3H]-histamine from full length human H4R expressed in HEK293 cells; assay type: cell-based
[18] = Displacement of [3H]-histamine from dog H4R expressed in HEK293T cells; assay type: cell-based, Canis lupus familiaris; settings: hek-293t
[19] = Metabolic stability in rat liver microsomes; assay type: ADME, Microsome; settings: read-out: Stability
[20] = Blood clearance in dog at 1 mg/kg, iv and 10 mg/kg, po; assay type: ADME, organism-based, Canis lupus familiaris
[21] = target: T1, Histamine H4 receptor; test: Displacement of [3H]-histamine from human H4R expressed in HEK293T cells; assay type: cell-based, HEK-293T
[22] = system: HEK-293T; test: Antagonist activity at dog H4R expressed in HEK293T cells assessed as reversal of forskolin-induced cAMP production by CRE-beta-lactamase reporter gene assay; assay type: functional, cell-based; settings: Canis lupus familiaris
[23] = Oral bioavailability in rat at 5 mg/kg; assay type: ADME, organism-based; settings: in vivo
[24] = Plasma protein binding in human; assay type: ADME, cell-free; settings: read-out: PPB (converted)
[25] = Ratio of drug level in blood to plasma in rat at 1 mg/kg, iv and 5 mg/kg, po; assay type: ADME, organism-based
[26] = Lipophilicity, log D of the compound; assay type: physicochemical; settings: octanol/water
[27] = target: T3, Histamine H4 receptor (Cavia porcellus, UniProt Q91ZY3); test: Displacement of [3H]-histamine from guinea pig H4R expressed in HEK293T cells; assay type: cell-based, HEK-293T
T3 sequence (Q91ZY3 whole entry): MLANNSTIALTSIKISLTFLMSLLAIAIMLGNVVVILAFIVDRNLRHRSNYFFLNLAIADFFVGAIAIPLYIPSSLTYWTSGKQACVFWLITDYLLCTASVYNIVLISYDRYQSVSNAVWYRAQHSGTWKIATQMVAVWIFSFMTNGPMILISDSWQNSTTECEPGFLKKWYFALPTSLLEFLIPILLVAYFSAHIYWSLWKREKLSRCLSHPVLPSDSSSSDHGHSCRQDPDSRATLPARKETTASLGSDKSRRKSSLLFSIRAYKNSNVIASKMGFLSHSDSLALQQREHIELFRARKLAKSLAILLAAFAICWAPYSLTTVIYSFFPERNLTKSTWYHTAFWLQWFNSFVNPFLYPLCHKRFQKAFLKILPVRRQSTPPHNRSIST

[28] = target: T1, Histamine H4 receptor; test: Antagonist activity at full length human H4R expressed in HEK293 cells assessed as reversal of forskolin-induced cAMP production by CRE-beta-lactamase reporter gene assay; assay type: functional, cell-based
[29] = Blood clearance in rat at 1 mg/kg, iv and 5 mg/kg, po; assay type: ADME, organism-based
[30] = Metabolic stability in human liver microsomes; assay type: ADME, Microsome; settings: read-out: Stability
[31] = system: Rattus norvegicus; test: Toxicity in po dosed rat assessed as lymphoid depletion from thymus for 4 days; assay type: organism-based; settings: in vivo, 96 h
[32] = system: Rattus norvegicus; test: Toxicity in po dosed rat assessed as lymphoid depletion from spleen for 4 days; assay type: organism-based; settings: in vivo, 96 h
[33] = system: Rattus norvegicus; test: Toxicity in po dosed rat assessed as lymphoid depletion from gut for 4 days; assay type: organism-based; settings: in vivo, 96 h
[34] = system: Rattus norvegicus; test: Toxicity in po dosed rat assessed as decrease in reticulocyte counts for 4 days; assay type: organism-based; settings: in vivo, 96 h
[35] = system: Canis familiaris; test: Toxicity in dog assessed as adverse events dosed orally for 7 days; assay type: organism-based, Canis lupus familiaris; settings: in vivo, po, 168 h
[36] = system: Rattus norvegicus; test: Toxicity in po dosed rat assessed as decrease in erythropoiesis for 4 days; assay type: organism-based, Erythrocyte; settings: in vivo, 96 h
[37] = system: Liver microsomes; test: Metabolic stability in human liver microsomes assessed as reactive metabolite generation; assay type: ADME, Microsome
[38] = Oral bioavailability in rat at 1 mg/kg; assay type: ADME, organism-based; settings: in vivo
[39] = Volume of distribution in rat at 1 mg/kg, iv and 1 mg/kg, po; assay type: ADME, organism-based; settings: in vivo
[40] = system: Rattus norvegicus; test: Induction of pro-inflammatory response in rat dosed orally for 4 days; assay type: functional, organism-based
[41] = Clearance in rat at 1 mg/kg, iv and 1 mg/kg, po; assay type: ADME, organism-based; settings: in vivo
[42] = Half life in rat at 1 mg/kg, iv and 1 mg/kg, po; assay type: ADME, organism-based; settings: in vivo
[43] = system: Rattus norvegicus; test: Toxicity in rat assessed as bone marrow cytology changes at high dose, po for 7 days; assay type: organism-based; settings: in vivo, 168 h
[44] = system: Rattus norvegicus; test: Toxicity in rat assessed as vacuolation at high dose, po for 7 days; assay type: organism-based; settings: in vivo, 168 h
[45] = system: Rattus norvegicus; test: Toxicity in rat assessed as mortality at high dose, po for 7 days; assay type: organism-based; settings: in vivo, 168 h

Q: What does the source list for CN[C@@H]1CCN(c2cc(NCC3CC3)nc(N)n2)C1 [ADRIFORANT]?
A: Activity [1]: Active; IC50 [2]: 0.0049 µM; PPB [3]: 0%; Ki [4]: 0.0123 µM; blood plasma ratio [5]: 1; fraction unbound [6]: 0.81; half-life [7]: 24 h; Ki [8]: 0.0209 µM; Vd [9]: 14 L/kg; half-life [10]: 7 h; Vd [11]: 18 L/kg; pKi [12]: 7.81; IC50 [13]: 0.0013 µM; blood plasma ratio [14]: 3; Activity [15]: Active; bioavailability [16]: 39%; Ki [17]: 0.0024 µM; pKi [18]: 5.79; microsomal CLint [19]: < 8.5 µL/min/mg; clearance [20]: 7 mL/min/kg; Ki [21]: 0.00617 µM; Activity [22]: Active; bioavailability [23]: 62%; fraction unbound [24]: 0.84; blood plasma ratio [25]: 2; logD [26]: -0.1; Ki [27]: 0.123 µM; Ki [28]: 0.00156 µM; clearance [29]: 29 mL/min/kg; microsomal CLint [30]: < 7 µL/min/mg

Q: Which Activity [31] does the source give for CNC1CN(c2cc(NCCC(C)(C)C)nc(N)n2)C1 here?
A: Its Activity is “Non-toxic”.

Q: And the Activity [32]?
A: The Activity was “Non-toxic”.

Q: What about the microsomal CLint [19] of the same compound?
A: The microsomal CLint was 33 µL/min/mg.

Q: What about the Activity [33] of the same compound?
A: Its Activity is “Non-toxic”.

Q: And the Activity [34]?
A: Its Activity is “Non-toxic”.

Q: What about the Activity [35] of the same compound?
A: Its Activity is “Non-toxic”.

Q: And the Activity [36]?
A: Its Activity is “Non-toxic”.

Q: What about the Ki [28] of the same compound?
A: The Ki was 0.0015 µM.

Q: What does the source list for CN1C[C@@H]2CN(C(=O)c3cc4cc(Cl)ccc4[nH]3)C[C@@H]2C1?
A: Stability [37]: Unstable; microsomal CLint [19]: 36 µL/min/mg; Ki [28]: 0.027 µM; microsomal CLint [30]: 7 µL/min/mg

Q: With CN1C[C@@H]2CN(C(=N)c3nc4cc(F)c(F)cc4[nH]3)C[C@@H]2C1 as the compound, how does the bioavailability [38] read?
A: Its bioavailability is 20%.

Q: And the Vd [39]?
A: The Vd was 31 L/kg.

Q: What about the Activity [40] of the same compound?
A: Its Activity is “Active”.

Q: What about the clearance [41] of the same compound?
A: Its clearance is 31 mL/min/kg.

Q: And the half-life [42]?
A: The half-life was 12 h.

Q: What about the Activity [31] of the same compound?
A: Its Activity is “Dose-dependent effect”.

Q: What about the Activity [32] of the same compound?
A: The Activity was “Dose-dependent effect”.

Q: What about the Ki [17] of the same compound?
A: The Ki was 0.01 µM.

Q: And the microsomal CLint [19]?
A: Its microsomal CLint is 10 µL/min/mg.

Q: What about the Activity [33] of the same compound?
A: Its Activity is “Dose-dependent effect”.

Q: What about the Activity [34] of the same compound?
A: Its Activity is “Toxic”.

Q: And the Activity [36]?
A: Its Activity is “Toxic”.

Q: And the Ki [28]?
A: Its Ki is 0.01 µM.

Q: What about the microsomal CLint [30] of the same compound?
A: Its microsomal CLint is under 7 µL/min/mg.

Q: Which results are given for CNC1CN(c2cc(NCc3cccc(F)c3)nc(N)n2)C1?
A: Activity [43]: Toxic; Activity [44]: Toxic; Ki [17]: 0.018 µM; microsomal CLint [19]: < 8.5 µL/min/mg; Ki [28]: 0.013 µM

Q: For CNC1CN(c2cc(N)nc(NCC3CC3)n2)C1, which Activity [45] is on record?
A: Its Activity is “Toxic”.

Q: What about the Ki [17] of the same compound?
A: Its Ki is 9.07 µM.

Q: And the microsomal CLint [19]?
A: The microsomal CLint was under 8.5 µL/min/mg.

Q: And the Ki [28]?
A: Its Ki is over 2 µM.
